Converted amounts (≈) assume the structure as drawn. Where two headings read alike, the source gives them in different places.
Columns and labels:
[1] = system: MRSA ST5-SCCmecII (USA100); assay: Disk diffusion test; format: cell-based, Staphylococcus aureus
[2] = system: MRSA ST30-SCCmecIV (USA1100); assay: Disk diffusion test; format: cell-based, Staphylococcus aureus
MRSA BEC (BMB9393) = assay: microbe, parasite or virus in culture; format: cell-based, Staphylococcus aureus
Method: (§1) For biofilm production, tryptic soy broth (TSB; BD, Franklin Lakes, NJ, USA) was supplemented with 1% (w/v) glucose (TSB-Glu). Tryptic soy agar (TSA; BD) was used for bacterial growth. The Mueller-Hinton broth (MHB; BD) and Mueller-Hinton agar (MHA; BD) was used for susceptibility tests. All strains were maintained in 10% (v/v) glycerol stocks and stored at − 80 °C.
(§2) The derivatives were also analyzed quantitatively using microdilution assays in 96-well inert polystyrene microtiter plates (Nuclon; Nalge Nunc International, Rochester, NY, USA) to determine the minimal inhibitory concentration (MIC)[14]. Biological control, as well as growth conditions, were performed following CLSI recommendation[15],[16]. […] Controls were also performed using 2% (v/v) DMSO only.

S. aureus ATCC 25923 [3] = assay: MIC, broth microdilution; format: cell-based, Staphylococcus aureus
Excerpt: (§3) Strain representatives of six globally spread clones/lineages of MRSA were used in this study to test the antimicrobial activity of the N,O-acetal derivatives against MRSA: NY/Japan-USA100/ST5-SCCmecII (strain CR15-071), USA300/ST8-SCCmecIV (strain USA300-0114), USA400/ST1-SCCmecIV (strain USA400-0051), Brazilian epidemic clone-BEC/ST239-SCCmecIII (strain BMB9393), pediatric clone-USA800/ST5-SCCmecIV (strain USA800-0179), and OSPC-USA1100/ST30-SCCmecIV (strain 07-040). The S. aureus ATCC 25923 was used as a control for the experiment of drug susceptibility. […] For biofilm production, tryptic soy broth (TSB; BD, Franklin Lakes, NJ, USA) was supplemented with 1% (w/v) glucose (TSB-Glu). Tryptic soy agar (TSA; BD) was used for bacterial growth. The Mueller-Hinton broth (MHB; BD) and Mueller-Hinton agar (MHA; BD) was used for susceptibility tests. All strains were maintained in 10% (v/v) glycerol stocks and stored at − 80 °C.
as §2, with “The antibacterial activity of 6a and its derivatives 7a, 7b, and 7c was tested as previously described using paper disks impregnated with each compound[13]. The” for “The”

Hemocompatibility assay = conditions: human, pH 7.4
Method: (§4) Erythrocytes were collected from three human volunteers in a citrate tube and washed three times (3×) with PBS (pH 7.4). All derivatives were incubated with the PBS-erythrocyte suspension for 3 h at 37 °C. The hemolysis with the release of hemoglobin was quantified by the spectrophotometric reading of the supernatant at 545 nm. Hemolysis less than 10% represented hemocompatibility and non-toxicity against erythrocyte membranes. For the positive control, the human erythrocytes were lysed with 1% (v/v) Triton X-100. The negative control was performed with 1% (v/v) DMSO only (final concentration). […] All methods were carried out in accordance with relevant guidelines and regulations. In addition, informed consent was obtained from all volunteers. Three independent experiments were performed in triplicate.

S. aureus ATCC 25923 [4] = assay: Disk diffusion test; format: cell-based, Staphylococcus aureus
Excerpt: as §3
as §2, with “The antibacterial activity of 6a and its derivatives 7a, 7b, and 7c was tested as previously described using paper disks impregnated with each compound[13]. The” for “The”

[5] = system: MRSA USA300 (USA300-0114); assay: MIC, broth microdilution; format: cell-based, Staphylococcus aureus
Method: as §1, §2

[6] = system: MRSA OSPC-USA1100 (07-040); assay: MIC, broth microdilution; format: cell-based, Staphylococcus aureus
Method: as §1, §2

[7] = system: MRSA USA400 (USA400-0051); assay: MIC, broth microdilution; format: cell-based, Staphylococcus aureus
Method: as §1, §2

[8] = system: MRSA NY/Japan-USA100 (CR15-071); assay: MIC, broth microdilution; format: cell-based, Staphylococcus aureus
Method: as §1, §2

[9] = system: MRSA Pediatric-USA800 (USA800-0179); assay: MIC, broth microdilution; format: cell-based, Staphylococcus aureus
Method: as §1, §2

Cytotoxicity assay (MTT) = conditions: African green monkey, Vero cell monolayers
Method: (§5) Plates were incubated for 1 h, the supernatant again removed, and 200 µL dimethyl sulfoxide (DMSO) were added to each well to dissolve the formazan crystals for 10 min. Absorbance was measured at 570 nm using an ELISA reader (Thermo Plate, TP-READER, Thermo Fisher Scientific). […] The selectivity index (SI) was calculated as follows: SI (µg/mL) = CC50/MIC[17]. Three independent experiments were performed in triplicate. Controls were performed using 2% (v/v) DMSO only.

[10] = system: MRSA ST8-SCCmecIV (USA300); assay: Disk diffusion test; format: cell-based, Staphylococcus aureus
[11] = system: MRSA (ST1-SCCmecIV) (USA400); assay: Disk diffusion test; format: cell-based, Staphylococcus aureus
[12] = system: MRSA ST239-SCCmecIII (BMB9393); assay: Disk diffusion test; format: cell-based, Staphylococcus aureus
[13] = system: MRSA strain BMB9393 biofilm; assay: Biofilm development on polystyrene, crystal violet; format: cell-based, Staphylococcus aureus; conditions: 1/4MIC (6a 32 µg/mL, 7a 64 µg/mL, vancomycin 0.5 µg/mL); strain BMB9393
Method: Biofilms were formed on polystyrene surfaces using the BEC representative, strain BMB9393. […] The same volume of the bacterial culture in TSB-Glu (37 °C/18 h; at 250 rpm) diluted 1/100 in the same broth was added to the wells. After incubation (37 °C/24 h), supernatants were gently removed, rinsed with distilled water, and treated with crystal violet solution as described. […] Eight independent tests with three replicates each were performed. Controls were inoculated with the same bacterial inoculum but using only TSB-Glu with 2% (v/v) DMSO, final concentration.

[14] = system: MRSA ST5-SCCmecIV (USA800); assay: Disk diffusion test; format: cell-based, Staphylococcus aureus
human erythrocytes = assay: Hemocompatibility assay; conditions: highest concentration evaluated (300 µg/mL), 3 h at 37 °C
Method: as §4

Vero cell line = assay: Cytotoxicity assay (MTT); conditions: Vero cells, 24 h, MTT
Method: as §5

[15] = system: MRSA strain CR15-071 (USA100) cells persistent to vancomycin; assay: Vancomycin-persistent cells, high bacterial load on TSA plates; format: cell-based, Staphylococcus aureus; conditions: vancomycin alone, 4MIC (8 µg/mL) plates, high inoculum
Method: For this test, we choose the MRSA strain CR15-071 representative of the ST5-SCCmecII lineage (NY/Japan-USA100 clone), since this MRSA has replaced the ST239-SCCmecIII (the Brazilian clone) in this country, and is now the most frequent MRSA lineage in Brazilian hospitals. […]. The plates were incubated at 37 °C/24 h before being examined. […]. Bacterial growth was determined by removing persistent cells from the plates and determining UFC/ml. Controls were also performed using 2% (v/v) DMSO only. Three independent experiments were performed in triplicate.

[16] = Table 2, used for SI, strain not given, values of 6a-7c equal those for BEC (BMB9393)

SMILES	Inhibition zone [1] [mm]	Inhibition zone [2] [mm]	MIC (MRSA BEC (BMB9393); [16]) [µg/mL]	Inhibition zone (S. aureus ATCC 25923 [4]) [mm]	Inhibition zone [10] [mm]	Inhibition zone [11] [mm]	Inhibition zone [12] [mm]	Effect on biofilm development [13]	Inhibition zone [14] [mm]	also measured
NC1=CC(=O)c2ccccc2C1=O [6a, 2-amino-1,4-naphthoquinone]	9±1.0	10±0.5	128 (≈ 739 µM)	9±1.4	9±1.0	8±1.2	8±2.0	much less effective at reducing biofilm development compared with 7b or 7c	8±1.0	MIC (MRSA BEC (BMB9393); Staphylococcus aureus, MRSA): 128 µg/mL (≈ 739 µM); MIC (S. aureus ATCC 25923 [3]; Staphylococcus aureus, ATCC25923, control strain S. aureus ATCC 25923, read-out: MIC): 32 µg/mL (≈ 185 µM); hemolysis at 3 h, 300 µg/mL (Hemocompatibility assay; human erythrocyte suspension): 3 ± 0.9%; MIC ([5]; Staphylococcus aureus): 256 µg/mL (≈ 1480 µM); MIC ([6]; Staphylococcus aureus, MRSA): 256 µg/mL (≈ 1480 µM); MIC ([7]; Staphylococcus aureus): 128 µg/mL (≈ 739 µM); MIC ([8]; Staphylococcus aureus): 256 µg/mL (≈ 1480 µM); MIC ([9]; Staphylococcus aureus): 128 µg/mL (≈ 739 µM); CC50 at 24 h (Cytotoxicity assay (MTT)): 97.3 ± 3.12 µg/mL (≈ 562 µM)
COCNC1=CC(=O)c2ccccc2C1=O [7a, 2-(methoxymethyl)-amino-1,4-naphthoquinone]	12±1.0	13±1.0	256 (≈ 1180 µM)	9.7±2.0	14±1.0	13±2.0	10±1.5	much less effective at reducing biofilm development compared with 7b or 7c	12±1.0	MIC (MRSA BEC (BMB9393); broth microdilution, BEC (BMB9393)): 256 µg/mL (≈ 1180 µM); MIC (S. aureus ATCC 25923 [3]; control strain S. aureus ATCC 25923): 128 µg/mL (≈ 589 µM); Hemolysis, maximum values (human erythrocytes): 3.10 ± 0.1%; MIC ([5]; broth microdilution, USA300 (USA300-0114)): 128 µg/mL (≈ 589 µM); MIC ([6]; broth microdilution, OSPC-USA1100 (07-040)): 256 µg/mL (≈ 1180 µM); MIC ([7]; broth microdilution, USA400 (USA400-0051)): 128 µg/mL (≈ 589 µM); MIC ([8]; broth microdilution, NY/Japan-USA100 (CR15-071)): 256 µg/mL (≈ 1180 µM); MIC ([9]; broth microdilution, Pediatric-USA800 (USA800-0179)): 256 µg/mL (≈ 1180 µM); CC50 (Vero cell line): 155.28 ± 1.03 µg/mL (≈ 715 µM)
CN[C@H](CC(C)C)C(=O)N[C@H]1C(=O)N[C@@H](CC(N)=O)C(=O)N[C@H]2C(=O)N[C@H]3C(=O)N[C@H](C(=O)N[C@H](C(=O)O)c4cc(O)cc(O)c4-c4cc3ccc4O)[C@H](O)c3ccc(c(Cl)c3)Oc3cc2cc(c3O[C@@H]2O[C@H](CO)[C@@H](O)[C@H](O)[C@H]2O[C@H]2C[C@](C)(N)[C@H](O)[C@H](C)O2)Oc2ccc(cc2Cl)[C@H]1O [Vancomycin, vancomycin, reference compound]	16±1.5	16±1.5		13±1.0	17±1.0	16±2.0	14±1.0	not able to reduce biofilm development	17±1.5	Refractory/persistent cells recovered [15]: 4.5 × 10^8 CFU/mL; hemolysis at 3 h (Hemocompatibility assay): 3.6 ± 0.8%

Source: PMC7661526, “Antibiofilm effects of N,O-acetals derived from 2-amino-1,4-naphthoquinone are associated with downregulation of important global virulence regulators in methicillin-resistant Staphylococcus aureus” (Scientific Reports, 2020)
